In patent US20230248766A1, “METHODS OF TREATING OXIDATIVE STRESS TO MODULATE REDOX BALANCE, PREVENTING OXIDATIVE STRESS INDUCED CELL DAMAGE AND DEATH” (Redox Balance, LLC, priority 2019, published 2023):

How the values were obtained:
tomato plants = assay: Plant growth enhancement by treatment with water-soluble C60; type: in vivo
Source text: Treated plants weighed 2X untreated plants. […] Example 7. […] Treated plants weighed 2× untreated plants.

seeds = assay: Seed pre-treatment to enhance germination; type: in vivo; settings: soaking seeds for 1 hour prior to placing in growing medium

polyhydroxy-C60 was tested, and the “weight of treated plants relative to untreated plants” value (tomato plants; tomato plants after two weeks) was 2 X, the “increases in growth rate” value (tomato plants; treatment of clones before initial planting) was “up to two times” and the germination (seeds) was “significant enhancement of germination”.
